From ChEMBL document CHEMBL3600281, “Synthesis and anticancer properties of new (dihydro)pyranonaphthoquinones and their epoxy analogs” (Bioorg Med Chem Lett, 2015)
Activity calls are given as the source filed them. No cut-off for these calls is given here.

System: Bacillus subtilis
Test: Antibacterial activity against Bacillus subtilis
Format: functional, organism-based

Row | Structure (SMILES) | Activity
1 | CC(C)C1=CC2=C(CO1)C(=O)c1ccccc1C2=O | inactive
2 | O=C1C2=C(CC(c3ccc(F)cc3)OC2)C(=O)c2ccccc21 (centres undefined) | inactive
3 | CC1=CC2=C(CO1)C(=O)c1ccccc1C2=O | inactive
4 | O=C1C2=C(COC(c3ccccc3)=C2)C(=O)c2ccccc21 | inactive
5 | CC1CC2=C(CO1)C(=O)c1ccccc1C2=O (centres undefined) | inactive
6 | CC1=C[C@@]23O[C@]2(CO1)C(=O)c1ccccc1C3=O | inactive
7 | O=C1c2ccccc2C(=O)[C@]23COC(c4ccc(F)cc4)C[C@]12O3 (some centres undefined) | inactive
8 | O=C1c2ccccc2C(=O)[C@]23COC(c4ccc(F)cc4)=C[C@]12O3 | inactive
9 | CC(C)C1C[C@@]23O[C@]2(CO1)C(=O)c1ccccc1C3=O (some centres undefined) | inactive
10 | O=C1C2=C(COC(c3ccc(F)cc3)=C2)C(=O)c2ccccc21 | inactive
11 | CC(C)C1CC2=C(CO1)C(=O)c1ccccc1C2=O (centres undefined) | inactive
12 | O=C1c2ccccc2C(=O)[C@]23COC(c4ccccc4)=C[C@]12O3 | inactive
13 | CC1C[C@@]23O[C@]2(CO1)C(=O)c1ccccc1C3=O (some centres undefined) | inactive
14 | O=C1C2=C(CC(c3ccccc3)OC2)C(=O)c2ccccc21 (centres undefined) | inactive

System: Escherichia coli
Test: Antibacterial activity against Escherichia coli
Format: functional, organism-based

Row | Structure (SMILES) | Activity
15 | CC(C)C1=CC2=C(CO1)C(=O)c1ccccc1C2=O | inactive
16 | O=C1C2=C(CC(c3ccc(F)cc3)OC2)C(=O)c2ccccc21 (centres undefined) | inactive
17 | CC1=CC2=C(CO1)C(=O)c1ccccc1C2=O | inactive
18 | O=C1C2=C(COC(c3ccccc3)=C2)C(=O)c2ccccc21 | inactive
19 | CC1CC2=C(CO1)C(=O)c1ccccc1C2=O (centres undefined) | inactive
20 | CC1=C[C@@]23O[C@]2(CO1)C(=O)c1ccccc1C3=O | inactive
21 | O=C1c2ccccc2C(=O)[C@]23COC(c4ccc(F)cc4)C[C@]12O3 (some centres undefined) | inactive
22 | O=C1c2ccccc2C(=O)[C@]23COC(c4ccc(F)cc4)=C[C@]12O3 | inactive
23 | CC(C)C1C[C@@]23O[C@]2(CO1)C(=O)c1ccccc1C3=O (some centres undefined) | inactive
24 | O=C1C2=C(COC(c3ccc(F)cc3)=C2)C(=O)c2ccccc21 | inactive
25 | CC(C)C1CC2=C(CO1)C(=O)c1ccccc1C2=O (centres undefined) | inactive
26 | O=C1c2ccccc2C(=O)[C@]23COC(c4ccccc4)=C[C@]12O3 | inactive
27 | CC1C[C@@]23O[C@]2(CO1)C(=O)c1ccccc1C3=O (some centres undefined) | inactive
28 | O=C1C2=C(CC(c3ccccc3)OC2)C(=O)c2ccccc21 (centres undefined) | inactive

System: Staphylococcus aureus
Test: Antibacterial activity against Staphylococcus aureus
Format: functional, organism-based

Row | Structure (SMILES) | Activity
29 | CC(C)C1=CC2=C(CO1)C(=O)c1ccccc1C2=O | Active
30 | O=C1C2=C(CC(c3ccc(F)cc3)OC2)C(=O)c2ccccc21 (centres undefined) | inactive
31 | CC1=CC2=C(CO1)C(=O)c1ccccc1C2=O | Active
32 | O=C1C2=C(COC(c3ccccc3)=C2)C(=O)c2ccccc21 | inactive
33 | CC1CC2=C(CO1)C(=O)c1ccccc1C2=O (centres undefined) | inactive
34 | CC1=C[C@@]23O[C@]2(CO1)C(=O)c1ccccc1C3=O | inactive
35 | O=C1c2ccccc2C(=O)[C@]23COC(c4ccc(F)cc4)C[C@]12O3 (some centres undefined) | inactive
36 | O=C1c2ccccc2C(=O)[C@]23COC(c4ccc(F)cc4)=C[C@]12O3 | inactive
37 | CC(C)C1C[C@@]23O[C@]2(CO1)C(=O)c1ccccc1C3=O (some centres undefined) | inactive
38 | O=C1C2=C(COC(c3ccc(F)cc3)=C2)C(=O)c2ccccc21 | inactive
39 | CC(C)C1CC2=C(CO1)C(=O)c1ccccc1C2=O (centres undefined) | inactive
40 | O=C1c2ccccc2C(=O)[C@]23COC(c4ccccc4)=C[C@]12O3 | inactive
41 | CC1C[C@@]23O[C@]2(CO1)C(=O)c1ccccc1C3=O (some centres undefined) | inactive
42 | O=C1C2=C(CC(c3ccccc3)OC2)C(=O)c2ccccc21 (centres undefined) | inactive

System: Pseudomonas aeruginosa
Test: Antibacterial activity against Pseudomonas aeruginosa
Format: functional, organism-based

Row | Structure (SMILES) | Activity
43 | CC(C)C1=CC2=C(CO1)C(=O)c1ccccc1C2=O | inactive
44 | O=C1C2=C(CC(c3ccc(F)cc3)OC2)C(=O)c2ccccc21 (centres undefined) | inactive
45 | CC1=CC2=C(CO1)C(=O)c1ccccc1C2=O | inactive
46 | O=C1C2=C(COC(c3ccccc3)=C2)C(=O)c2ccccc21 | inactive
47 | CC1CC2=C(CO1)C(=O)c1ccccc1C2=O (centres undefined) | inactive
48 | CC1=C[C@@]23O[C@]2(CO1)C(=O)c1ccccc1C3=O | inactive
49 | O=C1c2ccccc2C(=O)[C@]23COC(c4ccc(F)cc4)C[C@]12O3 (some centres undefined) | inactive
50 | O=C1c2ccccc2C(=O)[C@]23COC(c4ccc(F)cc4)=C[C@]12O3 | inactive
51 | CC(C)C1C[C@@]23O[C@]2(CO1)C(=O)c1ccccc1C3=O (some centres undefined) | inactive
52 | O=C1C2=C(COC(c3ccc(F)cc3)=C2)C(=O)c2ccccc21 | inactive
53 | CC(C)C1CC2=C(CO1)C(=O)c1ccccc1C2=O (centres undefined) | inactive
54 | O=C1c2ccccc2C(=O)[C@]23COC(c4ccccc4)=C[C@]12O3 | inactive
55 | CC1C[C@@]23O[C@]2(CO1)C(=O)c1ccccc1C3=O (some centres undefined) | inactive
56 | O=C1C2=C(CC(c3ccccc3)OC2)C(=O)c2ccccc21 (centres undefined) | inactive

System: KB
Test: Cytotoxicity against human KB cells
Format: functional, cell-based

Row | Structure (SMILES) | IC50 [µM]
57 | CC(C)C1=CC2=C(CO1)C(=O)c1ccccc1C2=O | 4.1
58 | O=C1C2=C(CC(c3ccc(F)cc3)OC2)C(=O)c2ccccc21 (centres undefined) | 20.6
59 | CC1=CC2=C(CO1)C(=O)c1ccccc1C2=O | 5.6
60 | O=C1C2=C(COC(c3ccccc3)=C2)C(=O)c2ccccc21 | 7.5
61 | CC1CC2=C(CO1)C(=O)c1ccccc1C2=O (centres undefined) | 25.3
62 | CC1=C[C@@]23O[C@]2(CO1)C(=O)c1ccccc1C3=O | > 41.3
63 | O=C1c2ccccc2C(=O)[C@]23COC(c4ccc(F)cc4)C[C@]12O3 (some centres undefined) | > 30.8
64 | O=C1c2ccccc2C(=O)[C@]23COC(c4ccc(F)cc4)=C[C@]12O3 | > 31
65 | CC(C)C1C[C@@]23O[C@]2(CO1)C(=O)c1ccccc1C3=O (some centres undefined) | > 32.6
66 | O=C1C2=C(COC(c3ccc(F)cc3)=C2)C(=O)c2ccccc21 | 1.5
67 | CC(C)C1CC2=C(CO1)C(=O)c1ccccc1C2=O (centres undefined) | 17.5
68 | O=C1c2ccccc2C(=O)[C@]23COC(c4ccccc4)=C[C@]12O3 | > 32.9
69 | CC1C[C@@]23O[C@]2(CO1)C(=O)c1ccccc1C3=O (some centres undefined) | > 41
70 | O=C1C2=C(CC(c3ccccc3)OC2)C(=O)c2ccccc21 (centres undefined) | 16.1

System: not listed separately
Test: Cytotoxicity against human Lu cells
Format: functional, cell-based

Row | Structure (SMILES) | IC50 [µM]
71 | CC(C)C1=CC2=C(CO1)C(=O)c1ccccc1C2=O | 14.9
72 | Cc1c2ccncc2c(C)c2c1[nH]c1ccccc12 [ELLIPTECINE] | 2.2
73 | O=C1C2=C(CC(c3ccc(F)cc3)OC2)C(=O)c2ccccc21 (centres undefined) | 22.1
74 | CC1=CC2=C(CO1)C(=O)c1ccccc1C2=O | 13.1
75 | O=C1C2=C(COC(c3ccccc3)=C2)C(=O)c2ccccc21 | > 34.7
76 | CC1CC2=C(CO1)C(=O)c1ccccc1C2=O (centres undefined) | 23.2
77 | CC1=C[C@@]23O[C@]2(CO1)C(=O)c1ccccc1C3=O | > 41.3
78 | O=C1c2ccccc2C(=O)[C@]23COC(c4ccc(F)cc4)C[C@]12O3 (some centres undefined) | > 30.8
79 | O=C1c2ccccc2C(=O)[C@]23COC(c4ccc(F)cc4)=C[C@]12O3 | > 31
80 | CC(C)C1C[C@@]23O[C@]2(CO1)C(=O)c1ccccc1C3=O (some centres undefined) | > 32.6
81 | O=C1C2=C(COC(c3ccc(F)cc3)=C2)C(=O)c2ccccc21 | 11.5
82 | CC(C)C1CC2=C(CO1)C(=O)c1ccccc1C2=O (centres undefined) | > 39
83 | O=C1c2ccccc2C(=O)[C@]23COC(c4ccccc4)=C[C@]12O3 | > 32.9
84 | CC1C[C@@]23O[C@]2(CO1)C(=O)c1ccccc1C3=O (some centres undefined) | > 41
85 | O=C1C2=C(CC(c3ccccc3)OC2)C(=O)c2ccccc21 (centres undefined) | > 34.4

System: MCF7
Test: Cytotoxicity against human MCF7 cells
Format: functional, cell-based

Row | Structure (SMILES) | IC50 [µM]
86 | CC(C)C1=CC2=C(CO1)C(=O)c1ccccc1C2=O | 6.7
87 | Cc1c2ccncc2c(C)c2c1[nH]c1ccccc12 [ELLIPTECINE] | 1.8
88 | O=C1C2=C(CC(c3ccc(F)cc3)OC2)C(=O)c2ccccc21 (centres undefined) | > 32.4
89 | CC1=CC2=C(CO1)C(=O)c1ccccc1C2=O | 29.5
90 | O=C1C2=C(COC(c3ccccc3)=C2)C(=O)c2ccccc21 | > 34.7
91 | CC1CC2=C(CO1)C(=O)c1ccccc1C2=O (centres undefined) | 22.1
92 | CC1=C[C@@]23O[C@]2(CO1)C(=O)c1ccccc1C3=O | > 41.3
93 | O=C1c2ccccc2C(=O)[C@]23COC(c4ccc(F)cc4)C[C@]12O3 (some centres undefined) | > 30.8
94 | O=C1c2ccccc2C(=O)[C@]23COC(c4ccc(F)cc4)=C[C@]12O3 | > 31
95 | CC(C)C1C[C@@]23O[C@]2(CO1)C(=O)c1ccccc1C3=O (some centres undefined) | > 32.6
96 | O=C1C2=C(COC(c3ccc(F)cc3)=C2)C(=O)c2ccccc21 | 12.9
97 | CC(C)C1CC2=C(CO1)C(=O)c1ccccc1C2=O (centres undefined) | 26.2
98 | O=C1c2ccccc2C(=O)[C@]23COC(c4ccccc4)=C[C@]12O3 | > 32.9
99 | CC1C[C@@]23O[C@]2(CO1)C(=O)c1ccccc1C3=O (some centres undefined) | > 41
100 | O=C1C2=C(CC(c3ccccc3)OC2)C(=O)c2ccccc21 (centres undefined) | 27.2

System: HepG2
Test: Cytotoxicity against human HepG2 cells
Format: functional, cell-based

Row | Structure (SMILES) | IC50 [µM]
101 | CC(C)C1=CC2=C(CO1)C(=O)c1ccccc1C2=O | 10.7
102 | Cc1c2ccncc2c(C)c2c1[nH]c1ccccc12 [ELLIPTECINE] | 1.3
103 | O=C1C2=C(CC(c3ccc(F)cc3)OC2)C(=O)c2ccccc21 (centres undefined) | 23.4
104 | CC1=CC2=C(CO1)C(=O)c1ccccc1C2=O | 6.7
105 | O=C1C2=C(COC(c3ccccc3)=C2)C(=O)c2ccccc21 | 12.2
106 | CC1CC2=C(CO1)C(=O)c1ccccc1C2=O (centres undefined) | 22.5
107 | CC1=C[C@@]23O[C@]2(CO1)C(=O)c1ccccc1C3=O | > 41.3
108 | O=C1c2ccccc2C(=O)[C@]23COC(c4ccc(F)cc4)C[C@]12O3 (some centres undefined) | > 30.8
109 | O=C1c2ccccc2C(=O)[C@]23COC(c4ccc(F)cc4)=C[C@]12O3 | > 31
110 | CC(C)C1C[C@@]23O[C@]2(CO1)C(=O)c1ccccc1C3=O (some centres undefined) | > 32.6
111 | O=C1C2=C(COC(c3ccc(F)cc3)=C2)C(=O)c2ccccc21 | 3.6
112 | CC(C)C1CC2=C(CO1)C(=O)c1ccccc1C2=O (centres undefined) | 19.8
113 | O=C1c2ccccc2C(=O)[C@]23COC(c4ccccc4)=C[C@]12O3 | > 32.9
114 | CC1C[C@@]23O[C@]2(CO1)C(=O)c1ccccc1C3=O (some centres undefined) | > 41
115 | O=C1C2=C(CC(c3ccccc3)OC2)C(=O)c2ccccc21 (centres undefined) | 18.7

System: Candida albicans
Test: Antifungal activity against Candida albicans
Format: functional, organism-based

Row | Structure (SMILES) | Activity
116 | CC(C)C1=CC2=C(CO1)C(=O)c1ccccc1C2=O | inactive
117 | O=C1C2=C(CC(c3ccc(F)cc3)OC2)C(=O)c2ccccc21 (centres undefined) | inactive
118 | CC1=CC2=C(CO1)C(=O)c1ccccc1C2=O | inactive
119 | O=C1C2=C(COC(c3ccccc3)=C2)C(=O)c2ccccc21 | inactive
120 | CC1CC2=C(CO1)C(=O)c1ccccc1C2=O (centres undefined) | inactive
121 | CC1=C[C@@]23O[C@]2(CO1)C(=O)c1ccccc1C3=O | inactive
122 | O=C1c2ccccc2C(=O)[C@]23COC(c4ccc(F)cc4)C[C@]12O3 (some centres undefined) | inactive
123 | O=C1c2ccccc2C(=O)[C@]23COC(c4ccc(F)cc4)=C[C@]12O3 | inactive
124 | CC(C)C1C[C@@]23O[C@]2(CO1)C(=O)c1ccccc1C3=O (some centres undefined) | inactive
125 | O=C1C2=C(COC(c3ccc(F)cc3)=C2)C(=O)c2ccccc21 | inactive
126 | CC(C)C1CC2=C(CO1)C(=O)c1ccccc1C2=O (centres undefined) | inactive
127 | O=C1c2ccccc2C(=O)[C@]23COC(c4ccccc4)=C[C@]12O3 | inactive
128 | CC1C[C@@]23O[C@]2(CO1)C(=O)c1ccccc1C3=O (some centres undefined) | inactive
129 | O=C1C2=C(CC(c3ccccc3)OC2)C(=O)c2ccccc21 (centres undefined) | inactive
